Assays:
[1] = molecular target: T1, BTK (Homo sapiens, UniProt Q06187); assay: Inhibitory activity against BTK, ADP-Glo + BTK Kinase enzyme system kit (Promega); type: biochemical; conditions: BTK enzyme 1 ng/μl; ATP 10 µM; 15 min preincubation at room temperature; 1 hour at 30° C.; luminescence; duplicate
T1 construct: purchased Promega Corporation
Experimental: (§1) Inhibitory activities against BTK and ITK were measured for the compounds prepared in the above Examples as follows.
The inhibitory activities against BTK were evaluated using ‘ADP-Glo™+BTK Kinase enzyme system’ kit (Promega Corporation). […] 5 μl of substrate and 5 μl of ATP prepared so as to have a final concentration of 10 µM were added to the plate on which reactions were completed, and then allowed to react at 30° C. for 1 hour. All wells of the plate were treated with 25 μl of ADP-Glo™ reagent and allowed to react at 30° C. for 40 minutes. After that, all wells were treated with 50 μl of kinase detection buffer, and then reacted at 30° C. for 30 minutes under light shielding conditions. For the plate on which all reactions were completed, luminescence was measured and the results were calculated. Evaluation was carried out in duplicate, and negative control and positive control were calculated depending on whether or not the enzyme was added without treatment of the compound. The IC50 was calculated based on the calculated values.

[2] = molecular target: T2, ITK (Homo sapiens, UniProt Q08881); assay: Inhibitory activity against ITK, ADP-Glo + ITK Kinase enzyme system kit (Promega); type: biochemical; conditions: ITK enzyme 0.4 ng/μl; 15 min preincubation at room temperature; 1 hour at 30° C.; luminescence; duplicate
T2 construct: purchased Promega Corporation
T2 sequence (Q08881 1-620): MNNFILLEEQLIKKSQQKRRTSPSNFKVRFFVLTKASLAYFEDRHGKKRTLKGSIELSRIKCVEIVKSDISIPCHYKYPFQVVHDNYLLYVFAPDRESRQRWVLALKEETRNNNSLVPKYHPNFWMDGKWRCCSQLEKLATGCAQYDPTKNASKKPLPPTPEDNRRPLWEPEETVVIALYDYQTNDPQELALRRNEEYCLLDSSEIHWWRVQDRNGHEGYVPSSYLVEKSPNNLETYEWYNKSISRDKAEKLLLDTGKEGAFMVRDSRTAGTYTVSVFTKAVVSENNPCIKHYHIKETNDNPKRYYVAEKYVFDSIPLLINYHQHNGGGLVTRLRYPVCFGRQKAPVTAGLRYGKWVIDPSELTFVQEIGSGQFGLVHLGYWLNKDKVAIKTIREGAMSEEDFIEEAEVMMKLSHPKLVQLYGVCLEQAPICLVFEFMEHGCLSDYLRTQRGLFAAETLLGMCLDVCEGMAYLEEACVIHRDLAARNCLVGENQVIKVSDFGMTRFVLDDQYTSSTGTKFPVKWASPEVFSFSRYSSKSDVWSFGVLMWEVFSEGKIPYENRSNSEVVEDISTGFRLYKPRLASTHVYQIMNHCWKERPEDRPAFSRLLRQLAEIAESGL
Experimental: as §1
The inhibitory activity against ITK was evaluated using ‘ADP-Glo™+ITK Kinase enzyme system’ kit (Promega Corporation). […] To the plate on which reactions were completed, 5 μl of substrate and 5 μl of ATP prepared so as to have a final concentration of […] were added and then allowed to react at 30° C. for 1 hour. All wells of the plate were treated with 25 μl of ADP-Glo™ reagent and then allowed to react at 30° C. for 40 minutes. After that, all wells were treated with 50 μl of kinase detection buffer, and then allowed to react at 30° C. for 30 minutes under light shielding conditions. For the plate on which all reactions were completed, luminescence was measured and the results were calculated. Evaluation was carried out in duplicate, and negative control and positive control were calculated depending on whether or not the enzyme was added without treatment of the compound. The IC50 was calculated based on the calculated values.

T1 sequence (Q06187 whole entry): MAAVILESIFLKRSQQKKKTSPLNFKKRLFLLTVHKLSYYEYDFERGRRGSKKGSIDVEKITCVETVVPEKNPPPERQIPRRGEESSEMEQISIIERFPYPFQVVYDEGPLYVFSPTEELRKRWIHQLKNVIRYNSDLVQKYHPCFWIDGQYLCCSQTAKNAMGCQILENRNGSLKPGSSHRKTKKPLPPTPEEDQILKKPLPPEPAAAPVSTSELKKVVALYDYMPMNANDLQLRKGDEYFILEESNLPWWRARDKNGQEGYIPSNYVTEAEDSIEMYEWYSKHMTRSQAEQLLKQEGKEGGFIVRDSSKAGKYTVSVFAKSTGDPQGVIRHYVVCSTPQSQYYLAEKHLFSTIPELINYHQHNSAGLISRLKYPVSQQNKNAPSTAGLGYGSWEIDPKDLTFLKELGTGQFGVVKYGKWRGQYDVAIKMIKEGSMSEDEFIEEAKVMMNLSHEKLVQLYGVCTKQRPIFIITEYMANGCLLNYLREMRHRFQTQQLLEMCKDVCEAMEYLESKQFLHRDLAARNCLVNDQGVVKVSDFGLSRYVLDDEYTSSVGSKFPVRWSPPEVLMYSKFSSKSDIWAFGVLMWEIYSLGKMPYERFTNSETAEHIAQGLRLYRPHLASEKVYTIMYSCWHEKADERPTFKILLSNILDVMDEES

Compound | IC50 [1] [nM] | IC50 [2] [nM]
C=CC(=O)N1CCC[C@H](N(C)c2cc(CN3CCOCC3)cc(Nc3ncc(C)s3)n2)C1 [Example 26, (S)-1-(3-(methyl (6-((5-methylthiazol-2-yl)amino)-4-(morpholinomethyl)pyridin-2-yl)amino)piperidin-1-yl) prop-2-en-1-one] | 2.2 | 17.7
C=CC(=O)NC1CCN(c2cc(CN3CCOCC3)cc(Nc3ncc(C)s3)n2)CC1 [Example 27, N-(1-(6-((5-methylthiazol-2-yl)amino)-4-(morpholinomethyl)pyridin-2-yl)piperidin-4-yl) acrylamide] | 85.2 | 43.8
C=CC(=O)N1CCC2CCN(c3cc(CN4CCOCC4)cc(Nc4ncc(C)s4)n3)CC21 (centres unmarked) [Example 28, 1-(6-(6-((5-methylthiazol-2-yl)amino)-4-(morpholinomethyl)pyridin-2-yl)octahydro-1H-pyrrolo[2,3-c]pyridin-1-yl) prop-2-en-1-one] | 8.8 | 31.7
CC#CC(=O)N1CCC2CCN(c3cc(CN4CCOCC4)cc(Nc4ncc(C)s4)n3)CC21 (centres unmarked) [Example 29, 1-(6-(6-((5-methylthiazol-2-yl)amino)-4-(morpholinomethyl)pyridin-2-yl)octahydro-1H-pyrrolo[2,3-c]pyridin-1-yl) but-2-yn-1-one] | 18.5 | 50.4
C=CC(=O)N1CC2(CC(Nc3cc(CN4CCOCC4)cc(Nc4ncc(C)s4)n3)C2)C1 [Example 30, 1-(6-((6-((5-methylthiazol-2-yl)amino)-4-(morpholinomethyl)pyridin-2-yl)amino)-2-azaspiro[3.3]heptan-2-yl) prop-2-en-1-one] | 67.1 | 47
C=CC(=O)N1CCC[C@H](Nc2nc(CN3CCCCC3)cc(Nc3ncc(C)s3)n2)C1 [Example 31, (S)-1-(3-((4-((5-methylthiazol-2-yl)amino)-6-(piperidin-1-ylmethyl)pyrimidin-2-yl)amino)piperidin-1-yl) prop-2-en-1-one] | 8.8 | 15.6
C=CC(=O)N1CCC[C@H](Nc2cc(CN3CCN(CC)CC3)cc(Nc3ncc(C)s3)n2)C1 [Example 32] | 3 | 5.6
C=CC(=O)N1CCC[C@H](Nc2cc(OC3CCN(C)CC3)cc(Nc3ncc(C)s3)n2)C1 [Example 33, (S)-1-(3-((4-((1-methylpiperidin-4-yl)oxy)-6-((5-methylthiazol-2-yl)amino)pyridin-2-yl)amino)piperidin-1-yl) prop-2-en-1-one] | 1.8 | 3.9
C=CC(=O)N1CCC[C@H](Nc2cc(CN3CCN(CCC#N)CC3)cc(Nc3ncc(C)s3)n2)C1 [Example 34, (S)-3-(4-((2-((1-acryloylpiperidin-3-yl)amino)-6-((5-methylthiazol-2-yl)amino)pyridin-4-yl)methyl)piperazin-1-yl) propanenitrile] | 1.1 | 1.7
C=CC(=O)N1CCC[C@H](Nc2cc(C)cc(Nc3ncc(C)s3)n2)C1 [Example 35, (S)-1-(3-((4-methyl-6-((5-methylthiazol-2-yl)amino)pyridin-2-yl)amino)piperidin-1-yl) prop-2-en-1-one] | 2.1 | 13.4
C=CC(=O)N1CCC[C@H](Nc2cc(Cc3cccnc3)cc(Nc3ncc(C)s3)n2)C1 [Example 36, (S)-1-(3-((6-((5-methylthiazol-2-yl)amino)-4-(pyridin-3-ylmethyl)pyridin-2-yl)amino)piperidin-1-yl) prop-2-en-1-one] | 3.9 | 1.8
C=CC(=O)N1CCC[C@H](Nc2cc(Cc3ccccn3)cc(Nc3ncc(C)s3)n2)C1 [Example 37, (S)-1-(3-((6-((5-methylthiazol-2-yl)amino)-4-(pyridin-2-ylmethyl)pyridin-2-yl)amino)piperidin-1-yl) prop-2-en-1-one] | 3.2 | 1.9
C=CC(=O)N1CCC[C@H](Nc2cc(C#N)cc(Nc3ncc(C)s3)n2)C1 [Example 38] | 1.6 | 2.6
C=CC(=O)N1CCC[C@H](Nc2cc(-c3ccccc3)cc(Nc3ncc(C)s3)n2)C1 [Example 39, (S)-1-(3-((6-((5-methylthiazol-2-yl)amino)-4-phenylpyridin-2-yl)amino)piperidin-1-yl) prop-2-en-1-one] | 7.5 | 4.8
C#CC(=O)N1CCC[C@H](Nc2cc(OC3CCN(C)CC3)cc(Nc3ncc(C)s3)n2)C1 [Example 40, (S)-1-(3-((4-((1-methylpiperidin-4-yl)oxy)-6-((5-methylthiazol-2-yl)amino)pyridin-2-yl)amino)piperidin-1-yl) prop-2-yn-1-one] | 10.3 | 10.8
CC#CC(=O)N1CCC[C@H](Nc2cc(OC3CCN(C)CC3)cc(Nc3ncc(C)s3)n2)C1 [Example 41, (S)-1-(3-((4-((1-methylpiperidin-4-yl)oxy)-6-((5-methylthiazol-2-yl)amino)pyridin-2-yl)amino)piperidin-1-yl) but-2-yn-1-one] | 9.5 | 128
C=CC(=O)N1CCC[C@H](Nc2cc(CN3CCN(CC)CC3)cc(Nc3ncc(C)s3)n2)C1 [Example 42, (S)-1-(3-((4-((4-ethylpiperazin-1-yl)methyl)-6-((5-methylthiazol-2-yl)amino)pyridin-2-yl)amino)piperidin-1-yl) prop-2-en-1-one] | 2.5 | 2.2
C=CC(=O)N1CCC[C@H](Nc2cc(CN3CCN(C)CC3)cc(Nc3ncc(C)s3)n2)C1 [Example 43] | 1.6 | 2.1
Cc1cc(CN2CCOCC2)cc(Nc2ncc(C)s2)n1 [Example 44, 5-methyl-N-(6-methyl-4-(morpholinomethyl)pyridin-2-yl) thiazol-2-amine] | > 1000 | ~1000
Cc1cnc(Nc2cc(CN3CCOCC3)cc(N[C@H]3CCCN(C(=O)CCCl)C3)n2)s1 [Example 45, (S)-3-chloro-1-(3-((6-((5-methylthiazol-2-yl)amino)-4-(morpholinomethyl)pyridin-2-yl)amino)piperidin-1-yl) propan-1-one] | 30.8 | 91.6
Cc1cnc(Nc2cc(CN3CCOCC3)cc(N[C@H]3CCCN(C(=O)/C=C/Cl)C3)n2)s1 [Example 46, (S,E)-3-chloro-1-(3-(6-(5-methylthiazol-2-ylamino)-4-(morpholinomethyl)pyridin-2-ylamino)piperidin-1-yl) prop-2-en-1-one] | 5.2 | 31.8
C=CC(=O)N1CCC[C@H](Nc2cc(CN3CCN(CCCN)CC3)cc(Nc3ncc(C)s3)n2)C1 [Example 47, (S)-1-(3-(4-((4-(3-aminopropyl)piperazin-1-yl)methyl)-6-(5-methylthiazol-2-vlamino)pyridin-2-vlamino)piperidin-1-yl) prop-2-en-1-one] | 6.1 | 9
C=CC(=O)N1CCC[C@H](Nc2cc(CN3CCOCC3)cc(Nc3cc[nH]n3)n2)C1 [Example 48, (S)-1-(3-(6-(1H-pyrazol-3-ylamino)-4-(morpholinomethyl)pyridin-2-ylamino)piperidin-1-yl) prop-2-en-1-one] | ~1000 | ~1000
C=CC(=O)N1CCC[C@H](Nc2cc(CN3CCOCC3)cc(Nc3ncc(C(F)(F)F)s3)n2)C1 [Example 49, (S)-1-(3-(4-(morpholinomethyl)-6-(5-(trifluoromethyl)thiazol-2-ylamino)pyridin-2-ylamino)piperidin-1-yl) prop-2-en-1-one] | 2 | 3
C=CC(=O)N1CCC[C@H](Nc2cc(CN3CCOCC3)cc(Nc3cc(Cl)[nH]n3)n2)C1 [Example 50, (S)-1-(3-(6-(5-chloro-1H-pyrazol-3-ylamino)-4-(morpholinomethyl)pyridin-2-ylamino)piperidin-1-yl) prop-2-en-1-one] | ~1000 | ~1000
